Measured values reported in patent publication US8022099B2, “N-benzyl pyrrolidine derivatives” (Hoffmann-La Roche Inc., priority 2008, dated 2011).

Target: T1, human NK3 receptor (Homo sapiens, UniProt P29371)
T1 construct: expressed in transfected cells; host or cells: HEK293 cells (transient expression), membrane preparation
T1 sequence (P29371 1-465): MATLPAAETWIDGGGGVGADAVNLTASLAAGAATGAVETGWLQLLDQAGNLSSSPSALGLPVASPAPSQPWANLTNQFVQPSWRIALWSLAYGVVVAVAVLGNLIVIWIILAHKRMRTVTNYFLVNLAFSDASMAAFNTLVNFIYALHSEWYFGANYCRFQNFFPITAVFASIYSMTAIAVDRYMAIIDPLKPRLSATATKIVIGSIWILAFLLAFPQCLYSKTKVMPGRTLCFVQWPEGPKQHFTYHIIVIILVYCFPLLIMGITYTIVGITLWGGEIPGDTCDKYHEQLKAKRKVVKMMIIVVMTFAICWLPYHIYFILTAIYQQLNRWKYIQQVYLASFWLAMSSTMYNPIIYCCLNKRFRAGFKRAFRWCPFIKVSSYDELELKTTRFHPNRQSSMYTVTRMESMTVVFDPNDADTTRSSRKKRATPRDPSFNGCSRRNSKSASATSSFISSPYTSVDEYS
Experiment: [3H]SR142801 competition binding assay
Settings: hNK3 receptor binding, [3H]SR142801, membranes from HEK293 cells transiently expressing recombinant human NK3 receptor
Experimental: [^3H]SR142801 Competition Binding Assay
hNK3 receptor binding experiment were performed using [^3H]SR142801 (Catalog No. TRK1035, specific activity: 74.0 Ci/mmol, Amersham, GE Healthcare UK limited, Buckinghamshire, UK) and membrane isolated from HEK293 cells transiently expressing recombinant human NK3 receptor. After thawing, the membrane homogenates were centrifuged at 48,000×g for 10 min at 4° C., the pellets were resuspended in the 50 mM Tris-HCl, 4 mM MnCl2, 1 μM phosphoramidon, 0.1% BSA binding buffer at pH 7.4 to a final assay concentration of 5 μg protein/well. For inhibition experiments, membranes were incubated with [^3H]SR142801 at a concentration equal to KD value of radioligand and 10 concentrations of the inhibitory compound (0.0003-10 μM) (in a total reaction volume of 500 μl) for 75 min at room temperature (RT). At the end of the incubation, membranes were filtered onto unitfilter (96-well white microplate with bonded GF/C filter preincubated 1 h in 0.3% PEI+0.3% BSA, Packard BioScience, Meriden, Conn.) with a Filtermate 196 harvester (Packard BioScience) and washed 4 times with ice-cold 50 mM Tris-HCl, pH 7.4 buffer. Nonspecific binding was measured in the presence of 10 μM SB222200 for both radioligands. The radioactivity on the filter was counted (5 min) on a Packard Top-count microplate scintillation counter with quenching correction after addition of 45 μl of microscint 40 (Canberra Packard S. A., Zürich, Switzerland) and shaking for 1 h. Inhibition curves were fitted according to the Hill equation: y=100/(1+(x/IC50)^nH), where nH=slope factor using Excel-fit 4 software (Microsoft). IC50 values were derived from the inhibition curve and the affinity constant (Ki) values were calculated using the Cheng-Prussoff equation Ki=IC50/(1+[L]/KD) where [L] is the concentration of radioligand and KD is its dissociation constant at the receptor, derived from the saturation isotherm. All experiments were performed in duplicate and the mean±standard error (SEM) of the individual Ki values was calculated.

SMILES | Ki
CN(Cc1ccc(C(F)(F)F)c(F)c1)[C@H]1CN(C(=O)CCCCC#N)C[C@@H]1c1ccc(Cl)c(Cl)c1 (racemic) [Example 102, 6-{(3SR,4RS)-3-(3,4-Dichloro-phenyl)-4-[(3-fluoro-4-trifluoromethyl-benzyl)-methyl-amino]-pyrrolidin-1-yl}-6-oxo-hexanenitrile] | 70.8 nM
CN(Cc1ccc(C(F)(F)F)c(F)c1)[C@H]1CN(C(=O)N2CCN(S(C)(=O)=O)CC2)C[C@@H]1c1ccc(Cl)cc1 (racemic) [Example 30, {(3SR,4RS)-3-(4-Chloro-phenyl)-4-[(3-fluoro-4-trifluoromethyl-benzyl)-methyl-amino]-pyrrolidin-1-yl}-(4-methanesulfonyl-piperazin-1-yl)-methanone] | 28.4 nM
CN(Cc1ccc(C(F)(F)F)c(F)c1)[C@H]1CN(C(=O)CN2CCC(C#N)CC2)C[C@@H]1c1ccc(Cl)c(Cl)c1 (racemic) [Example 130, 1-(2-{(3SR,4RS)-3-(3,4-Dichloro-phenyl)-4-[(3-fluoro-4-trifluoromethyl-benzyl)-methyl-amino]-pyrrolidin-1-yl}-2-oxo-ethyl)-piperidine-4-carbonitrile] | 25.4 nM
Cc1cc(CN(C)[C@H]2CN(C(=O)N3CCN(S(C)(=O)=O)CC3)C[C@@H]2c2ccc(Cl)c(Cl)c2)ccc1F (racemic) [Example 43, {(3SR,4RS)-3-(3,4-Dichloro-phenyl)-4-[(4-fluoro-3-methyl-benzyl)-methyl-amino]-pyrrolidin-1-yl}-(4-methanesulfonyl-piperazin-1-yl)-methanone] | 84.9 nM
CNCCCCC(=O)N1C[C@H](c2ccc(Cl)c(Cl)c2)[C@@H](N(C)Cc2ccc(C(F)(F)F)c(F)c2)C1 (racemic) [Example 86, 1-{(3SR,4RS)-3-(3,4-Dichloro-phenyl)-4-[(3-fluoro-4-trifluoromethyl-benzyl)-methyl-amino]pyrrolidin-1-yl}-5-methylamino-pentan-1-one] | 97.6 nM
CN(Cc1ccc(Cl)cc1)[C@H]1CN(C(=O)N2CCN(S(C)(=O)=O)CC2)C[C@@H]1c1ccc(Cl)c(Cl)c1 (racemic) [Example 33, [(3RS,4SR)-3-[(4-Chloro-benzyl)-methyl-amino]-4-(3,4-dichloro-phenyl)-pyrrolidin-1-yl]-(4-methanesulfonyl-piperazin-1-yl)-methanone] | 33.6 nM
CN(Cc1ccc(C(F)(F)F)c(F)c1)[C@H]1CN(C(=O)CCCCN2CCOCC2)C[C@@H]1c1cccc(Cl)c1 (racemic) [Example 107, 1-{(3SR,4RS)-3-(3-Chloro-phenyl)-4-[(3-fluoro-4-trifluoromethyl-benzyl)-methyl-amino]-pyrrolidin-1-yl}-5-morpholin-4-yl-pentan-1-one] | 81.2 nM
CN(Cc1ccc(Cl)c(Cl)c1)[C@H]1CN(C(=O)N2CCN(S(C)(=O)=O)CC2)C[C@@H]1c1ccc(Cl)cc1 (racemic) [Example 19, {(3SR,4RS)-3-(4-Chloro-phenyl)-4-[(3,4-dichloro-benzyl)-methyl-amino]-pyrrolidin-1-yl}-(4-methanesulfonyl-piperazin-1-yl)-methanone] | 80.7 nM
CN(Cc1ccc(C(F)(F)F)cc1)[C@H]1CN(C(=O)CCCCN2CCOCC2)C[C@@H]1c1ccc(Cl)c(Cl)c1 (racemic) [Example 84, 1-{(3SR,4RS)-3-(3,4-Dichloro-phenyl)-4-[methyl-(4-trifluoromethyl-benzyl)-amino]-pyrrolidin-1-yl}-5-morpholin-4-yl-pentan-1-one] | 15.5 nM
CN(Cc1ccc(C(F)(F)F)c(F)c1)[C@H]1CN(C(=O)CN2CCN(CCCO)CC2)C[C@@H]1c1ccc(Cl)c(Cl)c1 (racemic) [Example 129, 1-{(3SR,4RS)-3-(3,4-Dichloro-phenyl)-4-[(3-fluoro-4-trifluoromethyl-benzyl)-methyl-amino]-pyrrolidin-1-yl}-2-[4-(3-hydroxy-propyl)-piperazin-1-yl]-ethanone] | 17.1 nM
CN(C)[C@@H]1CCN(C(=O)N2C[C@H](c3ccc(Cl)c(Cl)c3)[C@@H](N(C)Cc3ccc(C(F)(F)F)c(F)c3)C2)C1 (mixture of isomers) [Example 57, {(3SR,4RS)-3-(3,4-Dichloro-phenyl)-4-[(3-fluoro-4-trifluoromethyl-benzyl)-methyl-amino]-pyrrolidin-1-yl}-((R)-3-dimethylamino-pyrrolidin-1-yl)-methanone] | 74.8 nM
CN(Cc1ccc(C(F)(F)F)c(F)c1)[C@H]1CN(C(=O)N2CCOCC2)C[C@@H]1c1ccc(Cl)c(Cl)c1 (racemic) [Example 52, {(3SR,4RS)-3-(3,4-Dichloro-phenyl)-4-[(3-fluoro-4-trifluoromethyl-benzyl)-methyl-amino]-pyrrolidin-1-yl}-morpholin-4-yl-methanone] | 71.3 nM
CN(Cc1ccc(C(F)(F)F)c(F)c1)[C@H]1CN(C(=O)CCN2CCOCC2)C[C@@H]1c1ccc(Cl)c(Cl)c1 [Example 110, 1-{(3S,4R)-3-(3,4-Dichloro-phenyl)-4-[(3-fluoro-4-trifluoromethyl-benzyl)-methyl-amino]-pyrrolidin-1-yl}-3-morpholin-4-yl-propan-1-one] | 26.7 nM
COCCCCC(=O)N1C[C@H](c2ccc(Cl)c(Cl)c2)[C@@H](N(C)Cc2ccc(C(F)(F)F)c(F)c2)C1 [Example 99, 1-{(3S,4R)-3-(3,4-Dichloro-phenyl)-4-[(3-fluoro-4-trifluoromethyl-benzyl)-methyl-amino]-pyrrolidin-1-yl}-5-methoxy-pentan-1-one] | 36.6 nM

The next compounds have a lower Ki than those just listed; values first:

Ki | SMILES
3.1 nM | CN(Cc1ccc(C(F)(F)F)c(F)c1)[C@H]1CN(C(=O)C2CCN(C(=O)C3(C)CC3)CC2)C[C@@H]1c1ccc(Cl)c(Cl)c1 (racemic) [Example 149, {(3SR,4RS)-3-(3,4-Dichloro-phenyl)-4-[(3-fluoro-4-trifluoromethyl-benzyl)-methyl-amino]-pyrrolidin-1-yl}-[1-(1-methyl-cyclopropanecarbonyl)-piperidin-4-yl]-methanone]
4.7 nM | CN(Cc1ccc(C(F)(F)F)c(F)c1)[C@H]1CN(C(=O)N2CCN(c3cnccn3)CC2)C[C@@H]1c1ccc(Cl)c(Cl)c1 (racemic) [Example 69, {(3SR,4RS)-3-(3,4-Dichloro-phenyl)-4-[(3-fluoro-4-trifluoromethyl-benzyl)-methyl-amino]-pyrrolidin-1-yl}-(2,3,5,6-tetrahydro-[1,2′]bipyrazinyl-4-yl)-methanone]
8.3 nM | CN(Cc1ccc(C(F)(F)F)c(F)c1)[C@H]1CN(C(=O)N2CCN(S(C)(=O)=O)CC2)C[C@@H]1c1ccc(Cl)c(Cl)c1 (racemic) [Example 31, {(3SR,4RS)-3-(3,4-Dichloro-phenyl)-4-[(3-fluoro-4-trifluoromethyl-benzyl)-methyl-amino]-pyrrolidin-1-yl}-(4-methanesulfonyl-piperazin-1-yl)-methanone]
4.8 nM | CCN(CC)C(=O)N1CCN(C(=O)N2C[C@H](c3ccc(Cl)c(Cl)c3)[C@@H](N(C)Cc3ccc(C(F)(F)F)c(F)c3)C2)CC1 (racemic) [Example 78, 4-{(3SR,4RS)-3-(3,4-Dichloro-phenyl)-4-[(3-fluoro-4-trifluoromethyl-benzyl)-methyl-amino]-pyrrolidine-1-carbonyl}-piperazine-1-carboxylic acid diethylamide]
11.2 nM | CN(Cc1ccc(C(F)(F)F)c(F)c1)[C@H]1CN(C(=O)CN2CCN(CCC#N)CC2)C[C@@H]1c1ccc(Cl)c(Cl)c1 (racemic) [Example 118, 3-[4-(2-{(3SR,4RS)-3-(3,4-Dichloro-phenyl)-4-[(3-fluoro-4-trifluoromethyl-benzyl)-methyl-amino]-pyrrolidin-1-yl}-2-oxo-ethyl)-piperazin-1-yl]-propionitrile]
12 nM | CN(Cc1ccc(C(F)(F)F)c(F)c1)[C@H]1CN(C(=O)CN2CCC(NS(C)(=O)=O)CC2)C[C@@H]1c1ccc(Cl)c(Cl)c1 (racemic) [Example 143, N-[1-(2-{(3SR,4RS)-3-(3,4-Dichloro-phenyl)-4-[(3-fluoro-4-trifluoromethyl-benzyl)-methyl-amino]-pyrrolidin-1-yl}-2-oxo-ethyl)-piperidin-4-yl]-methanesulfonamide]
